Source: patent publication US4794125A, “Compounds having an immunizing activity” (CL Pharma AG, priority 1984, dated 1988)

Test system: delayed-type hypersensitivity
Test: DTH test (delayed-type hypersensitivity in mice), topical sensitization with oxazolone
Type: in vivo
Details: dose 1.0 mg/kg; OF-1 mice; topical sensitization with ethanol oxazolone solution
Experimental: The compounds prepared in accordance with the invention were investigated using the DTH test (delayed-type hypersensitivity in mice) according to Dietrich, F. M. & Hess, R.: Hypersensitivity in mice.
The new compounds (2,6-bis-MAA=2,6-bis-/(methylamino)-acetylamino/-anthraquinone), CS-A=cyclosporin A, were tested in vivo in OF-1 mice by topical sensitization with antigen (ethanol oxazolone solution). The decrease in the inflammatory response versus untreated animals is expressed as % inhibition.

SMILES: CNCC(=O)Nc1ccc2c(c1)C(=O)c1ccc(NC(=O)CNC)cc1C2=O [2,6-bis-MAA, 2,6-bis-(methylamino)-acetylamino-anthraquinone]
- % Inhibition (decrease in the inflammatory response versus untreated animals): 35%
